Source: patent US7973069B2 (PTC Therapeutics, Inc., priority 2004, dated 2011)
Values joined by “and” are separate entries in the source; they are usually repeats but may differ in a detail not shown here. Equal entries are not always repeated.

What follows are compounds tested on HCV replicon.
Format: cell-based
For `CCN(CC)CCCOc1ccc2c(C#N)c(-c3ccc(NC(=O)OC(C)C)cc3)n(C3CCC3)c2c1` [Compound 1260], the IC50 was < 0.5 µM.
For `CCOc1ccc2c(C#N)c(-c3ccc(NC(=O)OCC(C)C)cc3)n(C3CCC3)c2c1` [Compound 979], the IC50 was < 0.5 µM.
With `CCOc1ccc2c(C#N)c(-c3ccc(NC(=O)OC4CCOC4)cc3)n(C3CCC3)c2c1` (stereo not drawn) [Compound 1215] the IC50 was < 0.5 µM.
For `CCCCS(=O)(=O)Nc1ccc(-c2c(C#N)c3ccc(OC(F)(F)F)cc3n2CC)cc1` [Compound 885], the IC50 was < 0.5 µM.
In the case of `CCOc1ccc2c(C#N)c(-c3ccc(NC(=O)Oc4ccc(OC)cc4)cc3)n(C3CCC3)c2c1` [Compound 978], the IC50 is reported as 0.5 to 2 µM.
In the case of `CC(C)NC(=O)Nc1ccc(-c2c(C#N)c3ccc(-c4ccccn4)cc3n2C2CCC2)cc1` [Compound 2440], the IC50 is reported as < 0.5 µM.
With `CCn1c(-c2ccc(NS(=O)(=O)C(C)C)cc2)c(C#N)c2ccc(OCCF)cc21` [Compound 912] the IC50 was 0.5 to 2 µM.
With `N#Cc1c(-c2ccc(NC(=O)OCC3CCC3)cc2)n(C2CCC2)c2cc(OCCCCN3CCCC3)ccc12` [Compound 1257] the IC50 was < 0.5 µM.
Compound `CCOc1ccc2c(c1)c(C#N)c(-c1ccc(NC(=O)OC(C)COC)cc1)n2C1CCC1` (stereo not drawn) [Compound 1299] has an IC50 of 0.5 to 2 µM.
`CCNC(=O)Nc1ccc(-c2c(C#N)c3ccc(OC(F)(F)F)cc3n2CC)cc1` [Compound 892] gave an IC50 of 0.5 to 2 µM.
`CCn1c(-c2ccc(N3CCCS3(=O)=O)cc2)c(C#N)c2ccc(NC(=O)OC(C)(C)C)cc21` [Compound 1049] was tested, and the IC50 was < 0.5 µM.
With `CCn1c(-c2cccc(NS(=O)(=O)CC)c2)c(C#N)c2ccc(OCCCN3CCOCC3)cc21` [Compound 1035] the IC50 was 0.5 to 2 µM.
For `CCC(=O)Nc1ccc(-c2c(C#N)c3ccc(OC(F)(F)F)cc3n2CC)cc1` [Compound 914], the IC50 was 0.5 to 2 µM.
With `CCn1c(-c2ccc(NC(=O)N3CCCC3)cc2)c(C#N)c2ccc(OC)cc21` [Compound 1089] the IC50 was 0.5 to 2 µM.
With `CC(C)OC(=O)Nc1ccc(-c2c(C#N)c3ccc(OCCN4CCOCC4)cc3n2C2CCC2)cc1` [Compound 1271] the IC50 was < 0.5 µM.
For `N#Cc1c(-c2ccc(NS(=O)(=O)C3CC3)cc2)n(C2CCCC2)c2cc(OC(F)F)ccc12` [Compound 1189], the IC50 was < 0.5 µM.
With `CC(C)S(=O)(=O)Nc1ccc(-c2c(C#N)c3ccc(OC(F)F)cc3n2CC2CC2)cc1` [Compound 941] the IC50 was < 0.5 µM.
`CCOc1ccc2c(C#N)c(-c3ccc(NC(=O)OC(C)C(C)(C)C)cc3)n(C3CCC3)c2c1` (stereo not drawn) [Compound 1312] was tested, and the IC50 was < 0.5 µM.
In the case of `CCn1c(-c2ccc(NC(=O)OC(C)C)cc2)c(C#N)c2ccc(OCCF)cc21` [Compound 946], the IC50 is reported as < 0.5 µM.
`CCn1c(-c2cccc(N3CCOC3=O)c2)c(C#N)c2ccc(OCCCN3CCOCC3)cc21` [Compound 1069] showed an IC50 of 0.5 to 2 µM.
`CCOc1ccc2c(C#N)c(-c3cccc(N4CCCS4(=O)=O)c3)n(CC)c2c1` [Compound 907] was tested, and the IC50 was 0.5 to 2 µM.
In the case of `CCCCn1c(-c2cccc(NC(=O)OCCC)c2)c(C#N)c2ccc(OCC)cc21` [Compound 1021], the IC50 is reported as < 0.5 µM.
For `CCCOc1ccc2c(C#N)c(-c3ccc(NC(=O)OC4CCOCC4)cc3)n(C(C)C)c2c1` [Compound 1248], the IC50 was < 0.5 µM.
In the case of `CCOc1ccc2c(C#N)c(-c3ccc(NC(=O)OC4CCCC4)cc3)n(C3CCC3)c2c1` [Compound 1109], the IC50 is reported as < 0.5 µM.
`CCOc1ccc2c(C#N)c(-c3ccc(NC(=O)OC(C)COC)cc3)n(C3CCC3)c2c1` (stereo not drawn) [Compound 1313] was tested, and the IC50 was < 0.5 µM.
`CCOc1ccc2c(C#N)c(-c3ccc(NC(=O)NC(C)C)cc3)n(C(C)C)c2c1` [Compound 1100] was tested, and the IC50 was < 0.5 µM.
For `CCCn1c(-c2ccc(N3CCCS3(=O)=O)cc2)c(C#N)c2ccc(OC(F)(F)F)cc21` [Compound 904], the IC50 was 0.5 to 2 µM.
`COc1ccc2c(C#N)c(-c3ccc(NC(=O)OCc4ccccc4)cc3)n(C3CCC3)c2c1` [Compound 1079] was tested, and the IC50 was < 0.5 µM.
With `CC(C)NC(=O)Nc1ccc(-c2c(C#N)c3ccc(OCCCn4ccnc4)cc3n2C2CCC2)cc1` [Compound 1308] the IC50 was < 0.5 µM.
In the case of `CCOc1ccc2c(C#N)c(-c3ccc(NC(=O)OC(C)C)cc3)n(C3CCC3)c2c1` [Compound 973], the IC50 is reported as < 0.5 µM.
With `CCOc1ccc2c(C#N)c(-c3ccc(NS(=O)(=O)C4CC4)cc3)n(C3CCCC3)c2c1` [Compound 1141] the IC50 was 0.5 to 2 µM.
For `CCCOc1ccc2c(C#N)c(-c3ccc(NC(=O)OCC(C)C)cc3)n(C(C)C)c2c1` [Compound 1206], the IC50 was < 0.5 µM.
`CCn1c(-c2ccc(N)c(F)c2)c(C#N)c2ccc(OC)cc21` [Compound 880] was tested, and the IC50 was 0.5 to 2 µM.
`CCn1c(-c2ccc(NC(=O)OC)c(F)c2)c(C#N)c2ccc(OC)cc21` [Compound 875] gave an IC50 of 0.5 to 2 µM.
`CCCOc1ccc2c(C#N)c(-c3ccc(NC(=O)OC4CCOC4)cc3)n(C(C)C)c2c1` (stereo not drawn) [Compound 1249] was tested, and the IC50 was < 0.5 µM.
Compound `CCOc1ccc2c(C#N)c(-c3ccc(NC(=O)OCc4ccccc4)cc3)n(CC3CC3)c2c1` [Compound 1155] has an IC50 of 0.5 to 2 µM.
With `CCOc1ccc2c(c1)c(C#N)c(-c1ccc(NC(=O)OC3CCOC3)cc1)n2C1CCC1` (stereo not drawn) [Compound 1297] the IC50 was 0.5 to 2 µM.
`COc1ccc2c(c1)c(C#N)c(-c1ccc(NS(=O)(=O)C(C)C)cc1)n2C1CCC1` [Compound 1231] was tested, and the IC50 was 0.5 to 2 µM.
`CCOC(=O)Nc1ccc(-c2c(C#N)c3cc(OCc4ccccc4)ccc3n2CC)cc1` [Compound 925] gave an IC50 of 0.5 to 2 µM.
In the case of `CCn1c(-c2ccc(NC(=O)OCCCl)cc2)c(C#N)c2ccc(OCCCN3CCOCC3)cc21` [Compound 1114], the IC50 is reported as < 0.5 µM.
`CCOc1ccc2c(C#N)c(-c3ccc(NC(=O)OCC4CCCO4)cc3)n(C3CCC3)c2c1` (stereo not drawn) [Compound 1240] was tested, and the IC50 was < 0.5 µM.
For `CCOc1ccc2c(C#N)c(-c3ccc(NC(=O)OC4CCC4)cc3)n(C3CCC3)c2c1` [Compound 1167], the IC50 was < 0.5 µM.
`CCCNC(=O)Nc1ccc(-c2c(C#N)c3ccc(OC(F)F)cc3n2CC)cc1` [Compound 1136] showed an IC50 of 0.5 to 2 µM.
`CCOc1ccc2c(C#N)c(-c3ccc(NC(=O)OC4CCOCC4)cc3)n(C3CCC3)c2c1` [Compound 1216] gave an IC50 of 0.5 to 2 µM.
Compound `CCNC(=O)Nc1ccc(-c2c(C#N)c3cc(OC)ccc3n2CC)cc1` [Compound 1009] has an IC50 of 0.5 to 2 µM.
Work on `CCn1c(-c2ccc(N3CCOC3=O)cc2)c(C#N)c2ccc(OCCCCl)cc21` [Compound 1052] yielded an IC50 of 0.5 to 2 µM.
With `CCCOC(=O)Nc1ccc(-c2c(C#N)c3ccc(OCCC)cc3n2C(C)C)cc1` [Compound 1203] the IC50 was < 0.5 µM.
In the case of `CCn1c(-c2ccc(NC(=O)C3CC3)cc2)c(C#N)c2ccc(OCCN(C)CCOC)cc21` [Compound 1091], the IC50 is reported as 0.5 to 2 µM.
“[4-(3-cyano-1-cyclobutyl-6-cyclopropyl-1H-indol-2-yl)-phenyl]-carbamic acid tert-butyl ester [Compound 2513]” gave an IC50 of 0.5 to 2 µM.
With `COc1ccc2c(C#N)c(-c3ccc(NS(=O)(=O)C4CC4)cc3)n(CC3CC3)c2c1` [Compound 982] the IC50 was > 2 µM.
In the case of `COc1ccc2c(C#N)c(-c3ccc(NC(=O)C4CC4)cc3)n(CC3CC3)c2c1` [Compound 983], the IC50 is reported as 0.5 to 2 µM.
Work on `CCOc1ccc2c(C#N)c(-c3ccc(NC(C)=O)cc3)n(CC)c2c1` [Compound 895] yielded an IC50 of 0.5 to 2 µM.
For `CCCCn1c(-c2ccc(NC(=O)NC(C)C)cc2)c(C#N)c2ccc(OCC)cc21` [Compound 1017], the IC50 was < 0.5 µM.
`COc1ccc2c(C#N)c(-c3ccc(NS(=O)(=O)C(C)C)cc3)n(CC3CCCC3)c2c1` [Compound 891] was tested, and the IC50 was 0.5 to 2 µM.
For `CCn1c(-c2cccc(NC(=O)OCCCl)c2)c(C#N)c2ccc(OCCCN3CCOCC3)cc21` [Compound 1044], the IC50 was < 0.5 µM.
For `CCCn1c(-c2ccc(NC(=O)NCC)cc2)c(C#N)c2ccc(OCC)cc21` [Compound 1094], the IC50 was 0.5 to 2 µM.
With `CCOc1ccc2c(C#N)c(-c3ccc(NC(=O)OCCCCl)cc3)n(C3CCC3)c2c1` [Compound 977] the IC50 was < 0.5 µM.
`CC(C)COC(=O)Nc1ccc(-c2c(C#N)c3ccc(OC(F)F)cc3n2CC2CC2)cc1` [Compound 1071] was tested, and the IC50 was 0.5 to 2 µM and > 2 µM.
For `CCn1c(-c2ccc(N3CC(=O)NC3=O)cc2)c(C#N)c2ccc(OC)cc21` [Compound 994], the IC50 was 0.5 to 2 µM.
With `CCOc1ccc2c(c1)c(C#N)c(-c1ccc(NC(=O)OCC3CC3)cc1)n2C1CCC1` [Compound 1291] the IC50 was < 0.5 µM.
Compound `CCS(=O)(=O)Nc1ccc(-c2c(C#N)c3ccc(OC)cc3n2COC)cc1` [Compound 988] has an IC50 of 0.5 to 2 µM.
With `CC(C)NC(=O)Nc1ccc(-c2c(C#N)c3ccc(OCCCN4CCCC4)cc3n2C2CCC2)cc1` [Compound 1309] the IC50 was < 0.5 µM.
In the case of `CCn1c(-c2ccc(NC(=O)OCCF)cc2)c(C#N)c2ccc(OCCCCl)cc21` [Compound 1033], the IC50 is reported as < 0.5 µM.
With `CCOc1ccc2c(C#N)c(-c3ccc(NC(=O)OCc4ccccn4)cc3)n(C3CCC3)c2c1` [Compound 1264] the IC50 was < 0.5 µM.
`CCCOC(=O)Nc1ccc(-c2c(C#N)c3ccc(OC)cc3n2C2CCC2)cc1` [Compound 1074] showed an IC50 of 0.5 to 2 µM.
In the case of `CCOc1ccc2c(c1)c(C#N)c(-c1ccc(NS(=O)(=O)CC)cc1)n2C1CCC1` [Compound 1228], the IC50 is reported as 0.5 to 2 µM.
`CCn1c(-c2ccc(N3CCCS3(=O)=O)cc2)c(C#N)c2ccc(C(F)(F)F)cc21` [Compound 969] was tested, and the IC50 was < 0.5 µM.
With `C[C@@H](OC(=O)Nc1ccc(-c2cc3ccc(Oc4ncccn4)cc3n2C2CCC2)cc1)C1CC1` [Compound 2341] the IC50 was < 0.5 µM.
For `CC(C)NC(=O)Nc1ccc(-c2c(C#N)c3ccc(OCc4cccnc4)cc3n2C2CCC2)cc1` [Compound 1212], the IC50 was < 0.5 µM.
In the case of `CCOc1ccc2c(C#N)c(-c3ccc(NC(=O)NC4CCCC4)cc3)n(C3CCC3)c2c1` [Compound 1027], the IC50 is reported as < 0.5 µM.
Compound `CCn1c(-c2ccc(NC(=O)OC(C)(C)C)cc2)c(C#N)c2ccc(Br)cc21` [Compound 1048] has an IC50 of 0.5 to 2 µM.
With `N#Cc1c(-c2ccc(NC(=O)OC3CCC3)cc2)n(C2CCC2)c2cc(OCCCCN3CCCC3)ccc12` [Compound 1258] the IC50 was < 0.5 µM.
With `C=CCOC(=O)Nc1ccc(-c2c(C#N)c3ccc(OCC)cc3n2C2CCC2)cc1` [Compound 981] the IC50 was < 0.5 µM.
With `CCOc1ccc2c(C#N)c(-c3ccc(NS(=O)(=O)CCCCl)cc3)n(C3CCC3)c2c1` [Compound 935] the IC50 was < 0.5 µM and 0.5 to 2 µM.
With `CCOC(=O)Nc1ccc(-c2c(C#N)c3ccc(OCC)cc3n2C(C)C)cc1` [Compound 1065] the IC50 was 0.5 to 2 µM and < 0.5 µM.
`CCOc1ccc2c(c1)c(C#N)c(-c1ccc(NC(=O)NC3CCCC3)cc1)n2C1CCC1` [Compound 1226] was tested, and the IC50 was < 0.5 µM.
For `CC(C)(C)OC(=O)Nc1ccc(-c2c(C#N)c3ccc(OCCN4CCCC4)cc3n2C2CCC2)cc1` [Compound 1121], the IC50 was < 0.5 µM.
`CCCS(=O)(=O)Nc1ccc(-c2c(C#N)c3ccc(OCC)cc3n2C2CCC2)cc1` [Compound 932] was tested, and the IC50 was < 0.5 µM.
